Assay results: US20230159538A1, “PYRROLIDINE-PYRAZOLES AS PYRUVATE KINASE ACTIVATORS” (Global Blood Therapeutics, Inc., priority 2020, published 2023)

Tests used:
[1] = target: T1, Human pyruvate kinase R (PKR) (Homo sapiens, UniProt P30613); experiment: Biochemical assay for activation of pyruvate kinase R (Kinase-Glo luminescence, ATP generation); conditions: 0.1 nM PKR, 2 mM FBP, 0.3 mM ADP, 0.1 mM PEP
T1 construct: Human pyruvate kinase R (PKR), residues 14-574; 6x-His (N, cleaved yes); 8x-Arg (N, cleaved yes); SUMO (N, cleaved yes); host or cells: E. coli
How it was run: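 E. coli-expressed human PKR, freed of its His-Arg-SUMO tag and purified by anion exchange and size exclusion, was tested for activation. Read-out was luminescent measurement of ATP generation with Kinase-Glo reagent.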

[2] = target: T2, Pyruvate kinase M2 (PKM2) in H1299 cells (Homo sapiens, UniProt P14618); experiment: Cell based assay for activation of pyruvate kinase M2 in lung carcinoma cell line (NADH/LDH coupled assay on cell lysate); conditions: PKM2 cellular assay; H1299 cells, 90 minutes with compound
T2 construct: endogenous in cells; host or cells: H1299
Description: Cell Based Assay for Activation of Pyruvate Kinase M2 in Lung Carcinoma Cell Line
H1299 cells were seeded in 96-well plates at 2,000 cells/well (100 uL). Treated plates were incubated overnight at 37° C. with 5% CO2. Compounds were diluted in complete media and added to cells in the presence of 1% DMSO. Cells were incubated with compound for 90 minutes at 37° C. and 5% CO2 before washing three times with PBS to remove residual compound and then lysed in lysis buffer (Cell Signaling). […] PKM2 activity was measured at steady state using a coupled enzyme activation system based on NADH consumption. PKM2 produces pyruvate and the coupled system uses lactate dehydrogenase (LDH) to reduce pyruvate to lactate with the concomitant oxidation of NADH to NAD^+. Conversion of NADH to NAD^+ was monitored using a SPECTROstar Nano plate reader (BMG Labtech) at a wavelength of 340 nm and subtraction of background absorbance measured at 750 nm. The change in NADH absorbance after PEP addition was monitored and slope obtained by subtracting baseline at 750 nm followed by least squares fitting to a simple linear regression model. A 10-point curve was generated to calculate the AC50 values by fitting the rates of NADH consumption against increasing concentration of compound.

T1 sequence (P30613 14-574): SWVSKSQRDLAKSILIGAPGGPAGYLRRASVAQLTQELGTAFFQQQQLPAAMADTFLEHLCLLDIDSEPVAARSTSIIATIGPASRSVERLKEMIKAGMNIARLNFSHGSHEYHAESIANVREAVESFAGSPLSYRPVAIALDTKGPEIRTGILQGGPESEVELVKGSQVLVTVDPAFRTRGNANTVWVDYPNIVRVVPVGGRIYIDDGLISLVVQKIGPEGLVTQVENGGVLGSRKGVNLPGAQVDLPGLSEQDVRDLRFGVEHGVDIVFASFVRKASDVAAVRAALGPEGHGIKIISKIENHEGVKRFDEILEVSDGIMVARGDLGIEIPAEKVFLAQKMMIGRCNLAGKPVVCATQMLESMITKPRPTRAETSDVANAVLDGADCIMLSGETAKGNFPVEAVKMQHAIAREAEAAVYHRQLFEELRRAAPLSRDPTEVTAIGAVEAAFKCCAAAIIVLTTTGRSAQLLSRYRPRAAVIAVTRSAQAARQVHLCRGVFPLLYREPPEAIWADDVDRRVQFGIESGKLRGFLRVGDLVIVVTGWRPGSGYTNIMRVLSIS
T2 sequence (P14618 2-531 limits assumed): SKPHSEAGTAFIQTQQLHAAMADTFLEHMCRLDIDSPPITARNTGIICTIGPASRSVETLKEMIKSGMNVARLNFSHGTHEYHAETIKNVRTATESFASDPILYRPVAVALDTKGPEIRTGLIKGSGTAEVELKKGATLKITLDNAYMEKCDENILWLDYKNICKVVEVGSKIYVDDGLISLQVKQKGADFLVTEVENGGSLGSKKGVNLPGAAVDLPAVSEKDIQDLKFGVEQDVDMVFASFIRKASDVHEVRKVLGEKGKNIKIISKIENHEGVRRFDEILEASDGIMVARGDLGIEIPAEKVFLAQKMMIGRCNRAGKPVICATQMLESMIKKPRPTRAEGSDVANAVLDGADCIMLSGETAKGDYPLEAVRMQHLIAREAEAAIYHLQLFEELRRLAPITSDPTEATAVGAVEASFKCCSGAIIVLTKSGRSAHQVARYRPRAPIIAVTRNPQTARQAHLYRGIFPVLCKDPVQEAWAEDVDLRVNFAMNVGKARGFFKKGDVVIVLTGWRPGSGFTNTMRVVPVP

| Structure (SMILES) | AC50 [1] [nM] | AC50 [2] [nM] |
| --- | --- | --- |
| NC(C(=O)N1Cc2cn(S(=O)(=O)c3ccc4ncsc4c3)nc2C1)c1cccc(C(F)(F)F)c1 (racemic) [Compound 26, 2-amino-1-[2-(1,3-benzothiazole-6-sulfonyl)-2H,4H,5H,6H-pyrrolo[3,4-c]pyrazol-5-yl]-2-[3-(trifluoromethyl)phenyl]ethan-1-one] | 72 | 147 |
| Cc1cc(C(N)C(=O)N2Cc3cn(S(=O)(=O)c4ccc5ncsc5c4)nc3C2)ccc1F (racemic) [Compound 39, 2-amino-1-[2-(1,3-benzothiazole-6-sulfonyl)-2H,4H,5H,6H-pyrrolo[3,4-c]pyrazol-5-yl]-2-(4-fluoro-3-methylphenyl)ethan-1-one] | 41 | 53 |
| O=C([C@H](O)c1ccccc1Cl)N1Cc2cn(S(=O)(=O)c3ccc4cn[nH]c4c3)nc2C1 [Compound 67, (2R)-2-(2-chlorophenyl)-2-hydroxy-1-[2-(1H-indazole-6-sulfonyl)-2H,4H,5H,6H-pyrrolo[3,4-c]pyrazol-5-yl]ethan-1-one] | 29 |  |
| O=C([C@H](O)c1ccccc1F)N1Cc2cn(S(=O)(=O)c3ccc(OC(F)F)cc3)nc2C1 [Compound 72, (2R)-1-[2-[4-(difluoromethoxy)benzenesulfonyl]-4H,6H-pyrrolo[3,4-c]pyrazol-5-yl]-2-(2-fluorophenyl)-2-hydroxyethanone] | 6 |  |
| O=CN[C@H](C(=O)N1Cc2cn(S(=O)(=O)c3ccc(OC(F)F)cc3)nc2C1)c1ccccc1 [Compound 73, N-[(1S)-2-{2-[4-(difluoromethoxy)benzenesulfonyl]-2H,4H,5H,6H-pyrrolo[3,4-c]pyrazol-5-yl}-2-oxo-1-phenylethyl]formamide] | 13 |  |
| O=C(N1Cc2cn(S(=O)(=O)c3ccc(OC(F)F)cc3)nc2C1)C1(c2ncccc2Cl)COC1 [Compound 75, 3-chloro-2-(3-{2-[4-(difluoromethoxy)benzenesulfonyl]-2H,4H,5H,6H-pyrrolo[3,4-c]pyrazole-5-carbonyl}oxetan-3-yl)pyridine] | 4.4 |  |
| O=C([C@H](CO)c1ccccc1)N1Cc2cn(S(=O)(=O)c3cnc4c(c3)OCCO4)nc2C1 [Compound 76, (2S)-1-(2-{2H,3H-[1,4]dioxino[2,3-b]pyridine-7-sulfonyl}-2H,4H,5H,6H-pyrrolo[3,4-c]pyrazol-5-yl)-3-hydroxy-2-phenylpropan-1-one] | 6.9 |  |
| COc1ccc(S(=O)(=O)n2cc3c(n2)CN(C(=O)[C@H](CO)c2ccccc2)C3)cn1 [Compound 77, (2S)-3-hydroxy-1-{2-[(6-methoxypyridin-3-yl)sulfonyl]-2H,4H,5H,6H-pyrrolo[3,4-c]pyrazol-5-yl}-2-phenylpropan-1-one] | 8.3 |  |
| O=CN[C@@H](C(=O)N1Cc2cn(S(=O)(=O)c3ccc(OC(F)F)cc3)nc2C1)c1ccccc1F [Compound 78, N-[(1R)-2-{2-[4-(difluoromethoxy)benzenesulfonyl]-2H,4H,5H,6H-pyrrolo[3,4-c]pyrazol-5-yl}-1-(2-fluorophenyl)-2-oxoethyl]formamide] | 4.7 |  |
| O=C([C@H](CO)c1ccccc1F)N1Cc2cn(S(=O)(=O)c3ccc4ncsc4c3)nc2C1 [Compound 79, (2S)-1-[2-(1,3-benzothiazole-6-sulfonyl)-2H,4H,5H,6H-pyrrolo[3,4-c]pyrazol-5-yl]-2-(2-fluorophenyl)-3-hydroxypropan-1-one] | 4.9 |  |
| O=C([C@H](CO)c1ccccc1F)N1Cc2cn(S(=O)(=O)c3cnc4c(c3)OCCO4)nc2C1 [Compound 80, (2S)-1-(2-{2H,3H-[1,4]dioxino[2,3-b]pyridine-7-sulfonyl}-2H,4H,5H,6H pyrrolo[3,4-c]pyrazol-5-yl)-2-(2-fluorophenyl)-3-hydroxypropan-1-one] | 2.1 |  |
| O=CN[C@@H](C(=O)N1Cc2cn(S(=O)(=O)c3ccc4ncsc4c3)nc2C1)c1ccccc1Cl [Compound 81, N-[(1R)-2-[2-(1,3-benzothiazole-6-sulfonyl)-2H,4H,5H,6H-pyrrolo[3,4-c]pyrazol-5-yl]-1-(2-chlorophenyl)-2-oxoethyl]formamide] | 3.8 |  |
| O=C([C@H](CO)c1ccccc1)N1Cc2cn(S(=O)(=O)c3ccc4ncccc4c3)nc2C1 [Compound 82, (2S)-3-hydroxy-2-phenyl-1-[2-(quinoline-6-sulfonyl)-2H,4H,5H,6H-pyrrolo[3,4-c]pyrazol-5-yl]propan-1-one] | 5 |  |
| O=C([C@H](CO)c1ccccc1)N1Cc2cn(S(=O)(=O)c3cccc(OC(F)F)c3)nc2C1 [Compound 83, (2S)-1-{2-[3-(difluoromethoxy)benzenesulfonyl]-2H,4H,5H,6H-pyrrolo[3,4-c]pyrazol-5-yl}-3-hydroxy-2-phenylpropan-1-one] | 7.9 |  |
| O=C([C@H](CO)c1ccccc1F)N1Cc2cn(S(=O)(=O)c3ccc4occc4c3)nc2C1 [Compound 84, (2S)-1-[2-(1-benzofuran-5-sulfonyl)-2H,4H,5H,6H-pyrrolo[3,4-c]pyrazol-5-yl]-2-(2-fluorophenyl)-3-hydroxypropan-1-one] | 4.5 |  |
| O=C([C@H](CO)c1ccccc1F)N1Cc2cn(S(=O)(=O)c3ccc(OC(F)F)nc3)nc2C1 [Compound 85, (2S)-1-(2-[6-(difluoromethoxy)pyridin-3-yl]sulfonyl-2H,4H,5H,6H-pyrrolo[3,4-c]pyrazol-5-yl)-2-(2-fluorophenyl)-3-hydroxypropan-1-one] | 6.8 |  |
| O=C([C@H](CO)c1ccccc1Cl)N1Cc2cn(S(=O)(=O)c3cnc4occc4c3)nc2C1 [Compound 86, (2S)-2-(2-chlorophenyl)-1-(2-{furo[2,3-b]pyridine-5-sulfonyl}-2H,4H,5H,6H-pyrrolo[3,4-c]pyrazol-5-yl)-3-hydroxypropan-1-one] | 1.8 |  |
| COc1ccc(S(=O)(=O)n2cc3c(n2)CN(C(=O)[C@H](CO)c2ccccc2F)C3)cc1 [Compound 88, (2S)-2-(2-fluorophenyl)-3-hydroxy-1-[2-(4-methoxybenzenesulfonyl)-2H,4H,5H,6H-pyrrolo[3,4-c]pyrazol-5-yl]propan-1-one] | 3 |  |
| Cn1ncc2ccc(S(=O)(=O)n3cc4c(n3)CN(C(=O)[C@H](CO)c3ccccc3)C4)cc21 [Compound 90, (2S)-3-hydroxy-1-{2-[(1-methyl-1H-indazol-6-yl)sulfonyl]-2H,4H,5H,6H-pyrrolo[3,4-c]pyrazol-5-yl}-2-phenylpropan-1-one] | 430 |  |
| O=C([C@H](CO)c1ccccc1)N1Cc2cn(S(=O)(=O)c3ccc4c(cnn4C(F)F)c3)nc2C1 [Compound 91, (2S)-1-(2-{[1-(difluoromethyl)-1H-indazol-5-yl]sulfonyl}-2H,4H,5H,6H-pyrrolo[3,4-c]pyrazol-5-yl)-3-hydroxy-2-phenylpropan-1-one] | 14 |  |
| O=C([C@H](CO)c1ccccc1)N1Cc2cn(S(=O)(=O)c3ccc4nccnc4c3)nc2C1 [Compound 94, (2S)-3-hydroxy-2-phenyl-1-[2-(quinoxaline-6-sulfonyl)-2H,4H,5H,6H-pyrrolo[3,4-c]pyrazol-5-yl]propan-1-one] | 17 |  |
| O=C([C@H](CO)c1ccccc1)N1Cc2cn(S(=O)(=O)c3ccc(OC4COC4)nc3)nc2C1 [Compound 95, (2S)-3-hydroxy-1-(2-{[6-(oxetan-3-yloxy)pyridin-3-yl]sulfonyl}-2H,4H,5H,6H-pyrrolo[3,4-c]pyrazol-5-yl)-2-phenylpropan-1-one] | 7080 |  |
| CN1Cc2cc(S(=O)(=O)n3cc4c(n3)CN(C(=O)[C@H](CO)c3ccccc3)C4)ccc2OC1=O [Compound 96, 6-({5-[(2S)-3-hydroxy-2-phenylpropanoyl]-2H,4H,5H,6H-pyrrolo[3,4-c]pyrazol-2-yl}sulfonyl)-3-methyl-3,4-dihydro-2H-1,3-benzoxazin-2-one] | 53 |  |
| O=C([C@H](CO)c1ccccc1)N1Cc2cn(S(=O)(=O)c3ccc(OC4CC4)nc3)nc2C1 [Compound 97, (2S)-1-{2-[(6-cyclopropoxypyridin-3-yl)sulfonyl]-2H,4H,5H,6H-pyrrolo[3,4-c]pyrazol-5-yl}-3-hydroxy-2-phenylpropan-1-one] | > 10000 |  |
| O=C([C@H](CO)c1ccccc1)N1Cc2cn(S(=O)(=O)c3ccc(C4CC4)nc3)nc2C1 [Compound 101, (2S)-1-{2-[(6-cyclopropylpyridin-3-yl)sulfonyl]-2H,4H,5H,6H-pyrrolo[3,4-c]pyrazol-5-yl}-3-hydroxy-2-phenylpropan-1-one] | 41 |  |
| O=C([C@H](NCCO)c1ccccc1F)N1Cc2cn(S(=O)(=O)c3ccc4ncccc4c3)nc2C1 [Compound 106, (2R)-2-(2-fluorophenyl)-2-[(2-hydroxyethyl)amino]-1-[2-(quinoline-6-sulfonyl)-2H,4H,5H,6H-pyrrolo[3,4-c]pyrazol-5-yl]ethan-1-one] | 44 |  |
